In US9388120B2, “Nitrogen and hindered phenol containing dual functional macromolecular antioxidants: synthesis, performances and applications” (Polnox Corporation, priority 2005, dated 2016):

What was measured:
[1] = Oxidative induction time (OIT) by DSC in polyol ester based base stock oil; details: antioxidant at 200 ppm in polyester based base stock; DSC at 200° C., oxygen at 20 ml/min
Experimental: (§1) Macromolecules V and A were tested for their performance in lubricant oils and polymers. The macromolecules were mixed in oil with stirring at 60° C. for 5-15 mins at 200 ppm in petroleum based Group II base stock and polyol based Group V base stock oils. The performance of these antioxidants were evaluated in lubricant base oil stocks including Group II using the DSC technique for determining their oxidation induction times measured in minutes (OIT) at 200° C. The OITs of the antioxidants having structures V and A were compared with commercial antioxidants [L57: Ciba's Irganox L57, 6PPD: N-hexyl phenyl-1,4-phenylene diamine CAS #793-24-8)].
The summary of performance of antioxidants I, II, V, X, XVIII and A and their comparison with commercial antioxidants L 57 and 6PPD in synthetic polyol ester based oil is shown in Table 1. The macromolecules were mixed in oil with stirring at 60° C. for 5-15 mins at 200 ppm in petroleum based Group II base stock and polyol based Group V base stock oils.

[2] = Oxidative induction time (OIT) by DSC in Group II lubricating base oil; details: 200 ppm; for OIT performance (FIG. 2) compared with commercial antioxidants: GII base oil, DSC at 200° C., versus L57 and 6PPD
Experimental: Macromolecule A was mixed with oil at 60° C. for 5-15 minutes at 200 ppm in petroleum based group II base stock oil and polyol based Group V base stock oils. It was tested using differential scanning calorimetry (DSC). Its Oxidative Induction Time (OIT) was also compared with commercially used antioxidants 2,6-di-tert-butyl-phenol, Naugalube APAN (PANA) and Vanlube 81 (DODP).
as §1

[3] = Solubility in Group II lubricant oil base stock; type: physicochemical; details: 10 g in 90 g Group II lubricant oil base stock, stirred 15 mins at 60° C.; industry standard 1-2%
Experimental: [drawing 67] 10 g of the antioxidant V was added to 90 g of Group II lubricant oil base stock in a beaker. […] This solubility is much higher than the typical industry standards of 1-2%.

| SMILES | OIT @ 200 ppm [1] [min] | OIT performance (FIG. 2) compared with commercial antioxidants [2] | protection of lubricating oils against oxidation (OIT, FIG. 1) compared with commercial antioxidants ([2]; Group II lubricating oil, DSC, versus 2,6-di-tert-butyl-phenol, Naugalube APAN (PANA), Vanlube 81 (DODP)) | solubility in Group II base stock [3] |
| --- | --- | --- | --- | --- |
| CC(C)(C)c1cc(CNc2ccc(Nc3ccccc3)cc2)c(O)c(C(C)(C)C)c1 [A] | 37 | superior performance | superior | – |
| CC(C)CC(C)Nc1ccc(Nc2ccccc2)cc1 (centres unmarked) [Antioxidant 6PPD, N-hexyl phenyl-1,4-phenylene diamine, reference compound] | 22 | – | – | – |
| CC(C)CC(C)N(Cc1cc(C(C)(C)C)c(O)c(C(C)(C)C)c1)c1ccc(Nc2ccccc2)cc1 (centres unmarked) [V] | 36 | superior performance | – | homogenous solution |
| Cc1cc(CNc2ccc(Nc3ccccc3)cc2)cc(C(C)(C)C)c1O [X] | 28 | – | – | – |
